Reference: US7189680B2, “5-halo-6-aryl[1,2,4]triazolo[1,5-a]pyrimidin-7-amines” (Bayer Cropscience AG, priority 2001, dated 2007)

Assay: logP determination by HPLC (EEC directive 79/831 Annex V. A8)
Type: physicochemical
Details: HPLC gradient method, acetonitrile/0.1% aqueous phosphoric acid; Table 1
Experimental: *) The logP values were determined in accordance with EEC directive 79/831 Annex V. A8 by HPLC (gradient method, acetonitrile/0.1% aqueous phosphoric acid)

Structure (SMILES)	logP*
CCC(C)N(N)c1c(-c2cccc3c2OC(F)(F)O3)c(Cl)nc2ncnn12 (stereo not shown) [Example 150]	3.27
CCC(C)N(N)c1c(-c2cc(C(F)(F)F)ccc2Cl)c(Cl)nc2ncnn12 (stereo not shown) [Example 146]	3.99
COC(=O)N(C)Nc1c(-c2ccccc2F)c(Cl)nc2ncnn12 [Example 93]	1.8
CCC(C)ONc1c(-c2c(F)c(F)c(F)c(F)c2F)c(Cl)nc2ncnn12 (stereo not shown) [Example 73]	3.33
CCCCN(N)c1c(-c2c(F)cc(F)cc2F)c(Cl)nc2ncnn12 [Example 132]	2.96
CCC(C)NNc1c(-c2cccc(C(F)(F)F)c2Cl)c(Cl)nc2ncnn12 (stereo not shown) [Example 145]	3.37
CN(O)c1c(-c2c(F)cc(F)cc2F)c(Cl)nc2ncnn12 [Example 123]	1.99
CC(C)CN(N)c1c(-c2ccc(F)cc2Cl)c(Cl)nc2ncnn12 [Example 172]	3.15
CC(C)CN(N)c1c(-c2c(Cl)cccc2Cl)c(Cl)nc2ncnn12 [Example 155]	3.17
CC(C)=NN(CC1CCCCC1)c1c(-c2c(F)cc(F)cc2F)c(Cl)nc2ncnn12 [Example 26]	4.5
NN(CC1CC1)c1c(-c2c(F)cc(F)cc2F)c(Cl)nc2ncnn12 [Example 159]	2.66
CCC(C)NNc1c(-c2cccc3c2OC(F)(F)O3)c(Cl)nc2ncnn12 (stereo not shown) [Example 151]	3.21
NN(CC1CCC1)c1c(-c2c(F)cc(F)cc2F)c(Cl)nc2ncnn12 [Example 169]	3.06
NN(CC1CC1(Cl)Cl)c1c(-c2c(F)cc(F)cc2F)c(Cl)nc2ncnn12 (stereo not shown) [Example 166]	3.11
NN(CC1CCCO1)c1c(-c2c(F)cc(F)cc2F)c(Cl)nc2ncnn12 (stereo not shown) [Example 127]	2.55
CCC(C)NNc1c(-c2cc(C(F)(F)F)ccc2Cl)c(Cl)nc2ncnn12 (stereo not shown) [Example 149]	3.47
CC(C)CNNc1c(-c2c(Cl)c(F)cc(C(F)(F)F)c2Cl)c(Cl)nc2ncnn12 [Example 44]	3.89
CC(=O)NN(CC(C)C)c1c(-c2c(F)cc(F)cc2F)c(Cl)nc2ncnn12 [Example 157]	2.25
NN(c1c(-c2c(F)cc(F)cc2F)c(Cl)nc2ncnn12)C1CCCC1 [Example 130]	3.07
CC(C)CN(N)c1c(-c2c(F)cc(F)cc2F)c(Cl)nc2ncnn12 [Example 131]	2.91
CCOC(=O)NN(CC(C)C)c1c(-c2c(F)cc(F)cc2F)c(Cl)nc2ncnn12 [Example 168]	2.99
CON(C)c1c(-c2c(F)c(F)c(F)c(F)c2F)c(Cl)nc2ncnn12 [Example 77]	3.06
CCC(C)NNc1c(-c2cc(C(F)(F)F)ccc2Cl)c(Cl)nc2ncnn12 (stereo not shown) [Example 147]	3.95
COCCN(N)c1c(-c2c(F)cc(F)cc2F)c(Cl)nc2ncnn12 [Example 128]	2.26
CC(C)=NN(CC(C)C)c1c(-c2c(F)cc(F)cc2F)c(Cl)nc2ncnn12 [Example 158]	3.63

The next lines start with the values.

logP*	Structure (SMILES)
3.62	Fc1c(F)c(F)c(-c2c(Cl)nc3ncnn3c2NOCc2ccc(Cl)cc2)c(F)c1F [Example 71]
1.92	CONc1c(-c2c(F)cccc2F)c(Cl)nc2ncnn12 [Example 32]
3.15	Fc1ccccc1-c1c(Cl)nc2ncnn2c1NOCc1cccc(Cl)c1 [Example 60]
2.78	CC(C)CONc1c(-c2c(F)cccc2F)c(Cl)nc2ncnn12 [Example 8]
3.32	Fc1cccc(F)c1-c1c(Cl)nc2ncnn2c1NOCc1ccc(C(F)(F)F)cc1 [Example 105]
2.18	CCONc1c(-c2c(F)cccc2F)c(Cl)nc2ncnn12 [Example 102]
2.58	CCCN(N)c1c(-c2c(F)cc(F)cc2F)c(Cl)nc2ncnn12 [Example 20]
2.83	CCCCONc1c(-c2c(F)cccc2F)c(Cl)nc2ncnn12 [Example 109]
4.02	Fc1c(F)c(F)c(-c2c(Cl)nc3ncnn3c2NOCc2ccc(Cl)cc2Cl)c(F)c1F [Example 114]
3.14	Fc1cccc(F)c1-c1c(Cl)nc2ncnn2c1NOCc1ccc(Cl)cc1 [Example 47]
2.86	CCC(C)ONc1c(-c2c(F)cc(F)cc2F)c(Cl)nc2ncnn12 (stereo not shown) [Example 41]
2.26	CN(C)Nc1c(-c2ccccc2F)c(Cl)nc2ncnn12 [Example 87]
2.86	Fc1ccc(CONc2c(-c3c(F)cccc3F)c(Cl)nc3ncnn23)cc1 [Example 107]
2.13	CCONc1c(-c2ccccc2F)c(Cl)nc2ncnn12 [Example 57]
2.28	C=CCONc1c(-c2c(F)cccc2F)c(Cl)nc2ncnn12 [Example 50]
2.13	CNN(C)c1c(-c2ccccc2F)c(Cl)nc2ncnn12 [Example 88]
3.16	Fc1ccccc1-c1c(Cl)nc2ncnn2c1NOCc1ccc(Cl)cc1 [Example 61]
2.86	CC(C)(C)NNc1c(-c2c(F)cc(F)cc2F)c(Cl)nc2ncnn12 [Example 21]
3.64	Fc1c(F)c(F)c(-c2c(Cl)nc3ncnn3c2NOCc2cccc(Cl)c2)c(F)c1F [Example 117]

logP*	Structure (SMILES)
2.33	CNN(C)c1c(-c2c(F)cc(F)cc2F)c(Cl)nc2ncnn12 [Example 18]
3.07	Fc1cccc(F)c1-c1c(Cl)nc2ncnn2c1NOCc1ccccc1Cl [Example 106]
2.92	Fc1cc(F)c(-c2c(Cl)nc3ncnn3c2NOCc2ccccc2)c(F)c1 [Example 12]
3.02	CC(NNc1c(-c2c(F)cc(F)cc2F)c(Cl)nc2ncnn12)C1CC1 (stereo not shown) [Example 25]
2.77	CCCCNNc1c(-c2ccccc2F)c(Cl)nc2ncnn12 [Example 90]
3.12	Fc1cccc(F)c1-c1c(Cl)nc2ncnn2c1NOCc1cccc(Cl)c1 [Example 46]
2.99	Fc1ccc(CONc2c(-c3c(F)cc(F)cc3F)c(Cl)nc3ncnn23)cc1 [Example 83]
1.68	OCCNNc1c(-c2c(F)cc(F)cc2F)c(Cl)nc2ncnn12 [Example 33]
2.94	Fc1cc(F)c(-c2c(Cl)nc3ncnn3c2NOC2CCCC2)c(F)c1 [Example 14]
3.22	Fc1cc(F)c(-c2c(Cl)nc3ncnn3c2NOCc2ccccc2Cl)c(F)c1 [Example 81]
3.14	CCC(C)NNc1c(-c2c(Cl)cccc2Cl)c(Cl)nc2ncnn12 (stereo not shown) [Example 154]
3.63	Fc1cccc(F)c1-c1c(Cl)nc2ncnn2c1NOCc1cc(Cl)cc(Cl)c1 [Example 104]
3.6	Fc1ccccc1-c1c(Cl)nc2ncnn2c1NOCc1ccc(Cl)cc1Cl [Example 97]
3.21	Fc1cc(F)c(-c2c(Cl)nc3ncnn3c2NOCc2nc(-c3ccccc3)cs2)c(F)c1 [Example 9]
2.33	CON(C)c1c(-c2ccccc2F)c(Cl)nc2ncnn12 [Example 68]
3.18	CC(C)CNNc1c(-c2c(Cl)cccc2Cl)c(Cl)nc2ncnn12 [Example 156]
1.89	CONc1c(-c2ccccc2F)c(Cl)nc2ncnn12 [Example 67]
2.03	N#CCCNNc1c(-c2c(F)cc(F)cc2F)c(Cl)nc2ncnn12 [Example 23]

Same assay, conditions: HPLC gradient method, acetonitrile/0.1% aqueous phosphoric acid; Table 1; read-out: logP*

chromatographic logP	Structure (SMILES)
2.48	C=CCNNc1c(-c2c(F)cc(F)cc2F)c(Cl)nc2ncnn12 [Example 24]

Same assay, conditions: Table 2, carbamates of formula (VIII)

logP	Structure (SMILES)
2.38	CCOC(=O)N(CC(C)C)OC [Example 178]
